This test relates to rabbit thoracic aorta contraction induced by endothelin.

Molecules are shown by their SMILES.

Experimental: Thoracic aorta were isolated from freshly killed male albino rabbits (11 weeks old) and cut into 25 mm strips with the intima denuded. After removing fatty tissues, these arterial segments (2 mm width and 25 mm length) were suspended in 25 ml organ chambers filled with Krebs-Ringer solution (113 mM NaCl, 4.8 mM KCl, 2.2 mM CaCl2, 1.2 mM MgCl2, 25 mM NaHCO3, 1.2 mM KH2 PO4, 5.5 mM glucose) maintained at 37° C. and gassed with 95% O2 /5% CO2.
A preload of 0.5 g was applied after the aorta had been conditioned by application of increasing concentration of KCl. Contractions were measured as an increase in isometric tension.
Test Compound was tested against contractile response of rabbit aorta induced by endothelin (3.2×10^-9 M). […] Test Compound was added after the full contraction response induced by endothelin.

For the compound `CC(C)C[C@H](NC(=O)NC1CCCCC1)C(=O)N[C@H](Cc1cn(C)c2ccccc12)C(=O)N[C@H](Cc1ccccn1)C(=O)O` [A], the half-maximal inhibitory concentration (IC50) worked out at 230 nM.

The values are drawn from patent US5656604A, “Peptide compound and its preparation” (Fujisawa Pharmaceutical Co., Ltd., priority 1990, dated 1997).
